What was measured:
Experiment in all cases: combination Emax (second highest fraction inhibited in the dose matrix, 72 h); higher = more inhibition; extreme values may be limits of the assay
[1] = test system: K5 (Thyroid Gland Carcinoma)
Outline: (§1)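 Cell lines in DMEM/F12 or RPMI with 10% FBS were plated in 1536-well plates, held 24 hours at 37°C, 5% CO2, then given two-drug dose matrices for 72 hours (DMSO typically 0.2%). Viability was read by CellTiter-Glo 2.0 luminescence and scaled as inhibition from 0 (vehicle wells) to 1 (blank wells). Combination Emax is the second-highest inhibition in the matrix; Bliss excess is observed combination effect minus expected EA + EB − EA·EB, EA and EB being single-agent effects.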

[2] = test system: HO-1-u-1 (Oral Cavity Carcinoma)
Outline: as §1

[3] = test system: NCI-H69 (Small Cell Lung Carcinoma)
Outline: as §1

[4] = test system: SW1116 (Colorectal Carcinoma)
Outline: as §1

[5] = test system: OC-314 (Ovarian Carcinoma)
Outline: as §1

[6] = test system: KYSE-410 (Esophageal Squamous Cell Carcinoma)
Outline: as §1

[7] = test system: CAL-51 (Breast Carcinoma)
Outline: as §1

[8] = test system: LoVo (Colorectal Carcinoma)
Outline: as §1

[9] = test system: UMC-11 (Other Solid Carcinomas)
Outline: as §1

[10] = test system: CAL-54 (Kidney Carcinoma)
Outline: as §1

[11] = test system: OVCAR-8 (Ovarian Carcinoma)
Outline: as §1

[12] = test system: NB14 (Neuroblastoma)
Outline: as §1

[13] = test system: SW1271 (Small Cell Lung Carcinoma)
Outline: as §1

[14] = test system: MDA-MB-468 (Breast Carcinoma)
Outline: as §1

[15] = test system: NCI-H2795 (Mesothelioma)
Outline: as §1

[16] = test system: HCC-15 (Squamous Cell Lung Carcinoma)
Outline: as §1

[17] = test system: HDLM-2 (Hodgkin's Lymphoma)
Outline: as §1

[18] = test system: RT-112 (Bladder Carcinoma)
Outline: as §1

[19] = test system: HARA (Squamous Cell Lung Carcinoma)
Outline: as §1

[20] = test system: RPMI-6666 (Non-Cancerous)
Outline: as §1

SMILES | combination Emax [1] | combination Emax [2] | combination Emax [3] | combination Emax [4] | combination Emax [5] | combination Emax [6] | combination Emax [7] | combination Emax [8] | combination Emax [9] | combination Emax [10] | combination Emax [11] | combination Emax [12] | combination Emax [13] | combination Emax [14] | combination Emax [15] | combination Emax [16] | combination Emax [17] | combination Emax [18] | combination Emax [19] | combination Emax [20]
Cc1c2c(nn1C)CSCc1cc(n(C)n1)CSc1cc(c3ccccc3c1)OCCCc1c(C(=O)O)n(C)c3c-2c(Cl)ccc13 [AZD5991] + Cn1cnc2c(F)c(Nc3ccc(Br)cc3Cl)c(C(=O)NOCCO)cc21 [Selumetinib] (first compound max 1 µM, 7x7, partner max 3 µM) | 0.739 | 0.292 | 0.218 | 0.446 | 0.245 | 0.331 | 0.406 | 0.565 | 0.348 | 0.28 | 0.255 | 0.76 | 0.448 | 0.595 | 0.971 | 0.563 | 0.995 | 1 | 0.223 | 0.695
CC1(C)CCC(CN2CCN(c3ccc(C(=O)NS(=O)(=O)c4ccc(NCC5CCOCC5)c([N+](=O)[O-])c4)c(Oc4cnc5[nH]ccc5c4)c3)CC2)=C(c2ccc(Cl)cc2)C1 [Venetoclax] + Cn1cnc2c(F)c(Nc3ccc(Br)cc3Cl)c(C(=O)NOCCO)cc21 [Selumetinib] (first compound max 1 µM, 7x7, partner max 3 µM) | 0.742 | 0.286 | 0.302 | 0.453 | 0.134 | 0.222 | 0.214 | 0.374 | 0.17 | 0.205 | 0.153 | 0.974 | 0.432 | 0.315 | 0.562 | 0.438 | 0.296 | 0.304 | 0.617 | 0.959
CC1(C)CCC(CN2CCN(c3ccc(C(=O)NS(=O)(=O)c4ccc(NCC5CCOCC5)c([N+](=O)[O-])c4)c(Oc4cnc5[nH]ccc5c4)c3)CC2)=C(c2ccc(Cl)cc2)C1 [Venetoclax] + C=CCn1c(=O)c2cnc(Nc3ccc(N4CCN(C)CC4)cc3)nc2n1-c1cccc(C(C)(C)O)n1 [AZD1775] (first compound max 1 µM, partner max 1 µM) | 0.523 | 0.949 | 0.425 | 0.23 | 0.933 | 0.422 | 0.851 | 0.741 | 0.487 | 0.795 | 0.798 | 1 | 0.552 | 0.521 | 0.658 | 0.469 | 0.88 | 0.978 | 0.899 | 0.996
CC1(C)CCC(CN2CCN(c3ccc(C(=O)NS(=O)(=O)c4ccc(NCC5CCOCC5)c([N+](=O)[O-])c4)c(Oc4cnc5[nH]ccc5c4)c3)CC2)=C(c2ccc(Cl)cc2)C1 [Venetoclax] + CCN(CCO)CCCOc1ccc2c(Nc3cc(CC(=O)Nc4cccc(F)c4)[nH]n3)ncnc2c1 [AZD2811] (first compound max 1 µM, 7x7, partner max 1 µM) | 0.413 | 0.324 | 0.824 | 0.202 | 0.419 | 0.191 | 0.349 | 0.197 | 0.91 | 0.251 | 0.298 | 1 | 0.174 | 0.624 | 0.422 | 0.781 | 0.486 | 0.458 | 0.714 | 0.991
CC(=O)c1c(C)c2cnc(Nc3ccc(N4CCNCC4)cn3)nc2n(C2CCCC2)c1=O [Palbociclib] + Cc1c2c(nn1C)CSCc1cc(n(C)n1)CSc1cc(c3ccccc3c1)OCCCc1c(C(=O)O)n(C)c3c-2c(Cl)ccc13 [AZD5991] (first compound max 10 µM, 7x7, partner max 1 µM) | 0.541 | 0.367 | 0.471 | 0.164 | 0.334 | 0.407 | 0.357 | 0.557 | 0.638 | 0.583 | 0.129 | 0.822 | 0.301 | 0.463 | 0.823 | 0.247 | 0.97 | 0.568 | 0.559 | 0.73
CN(CCO)CC[C@H](CSc1ccccc1)Nc1ccc(S(=O)(=O)NC(=O)c2ccc(N3CCC([C@@H](O)c4ccccc4-c4ccc(Cl)cc4)CC3)cc2)cc1S(=O)(=O)C(F)(F)F [AZD4320] + CN(C)CCCOc1ccc(-c2ccc3ncc4c(c3c2)n(C2CCOCC2)c(=O)n4C)cn1 [AZD0156] (first compound max 1 µM, 7x7, partner max 1 µM) | 0.289 | 0.259 | 0.86 | 0.191 | 0.165 | 0.108 | 0.16 | 0.287 | 0.567 | 0.163 | 0.212 | 0.983 | 0.127 | 0.656 | 0.417 | 0.936 | 0.785 | 0.188 | 0.187 | 0.875

From the supplement of paper PMC11061612
